From ChEMBL document CHEMBL3120139, “Design, synthesis, pharmacological evaluation and computational studies of 1-(biphenyl-4-yl)-2-[4-(substituted phenyl)-piperazin-1-yl]ethanones as potential antipsychotics” (Eur J Med Chem, 2014) come the findings set out here.

In data set [1] the test system is Mus musculus. Briefly: Induction of catalepsy in albino mouse at 15 mg/kg, ip relative to control. The class given is organism-based. Set-up: dose 15 mg/kg, route intraperitoneal. The conditions noted are these: in vivo.
The test system of data set [2] is Mus musculus. In words: Antiserotogenic activity in albino mouse assessed as inhibition of 5HTP-induced head twitches at 15 mg/kg, ip measured for 5 mins at every 5 mins interval for 1 hr relative to control. The class given is functional. Conditions: route intraperitoneal.
Data set [3] relates to Mus musculus. In words: Antipsychotic activity in albino mouse assessed as inhibition of apomorphine-induced climbing behaviour at 15 mg/kg, ip measured after 10 mins at 5 mins interval for 30 mins relative to control. The conditions noted are these: route intraperitoneal. The class given is functional.

In the data set with Mus musculus [1], `Cc1ccc(N2CCN(CC(=O)c3ccc(-c4ccccc4)cc3)CC2)cc1` came in with an Activity of 38.66%. Also, the inhibition in vivo at 15 mg/kg in the data set on Mus musculus [2] was determined as 29.8%; with Mus musculus [3] it was 33.3%.

In the data set with Mus musculus [1], `O=C(CN1CCN(c2cccc(C(F)(F)F)c2)CC1)c1ccc(-c2ccccc2)cc1` had an Activity of 31.84%. For the same compound, the inhibition in vivo at 15 mg/kg with Mus musculus [2] amounted to 32.6%; in the data set on Mus musculus [3] it was 26.4%.

`O=C(CN1CCN(c2ccc(F)cc2)CC1)c1ccc(-c2ccccc2)cc1`: the Activity with Mus musculus [1] was 30.48%. The inhibition in vivo at 15 mg/kg was 24.5% with Mus musculus [2] and 23.4% in the data set on Mus musculus [3].

In the data set with Mus musculus [1], `O=C1CCc2ccc(OCCCCN3CCN(c4cccc(Cl)c4Cl)CC3)cc2N1` [ARIPIPRAZOLE] came in with an Activity of 26.86%. Moreover, the inhibition in vivo at 15 mg/kg in the data set with Mus musculus [2] came out at 94.5%; in the data set on Mus musculus [3], 61.1%.

With `Cc1ccccc1N1CCN(CC(=O)c2ccc(-c3ccccc3)cc2)CC1`, the Activity with Mus musculus [1] amounted to 35.84%. Further, the results for the inhibition in vivo at 15 mg/kg with Mus musculus [2] and in the data set on Mus musculus [3] were 26.7% and 38.5%, respectively.

In the data set on Mus musculus [1], `COc1ccc(N2CCN(CC(=O)c3ccc(-c4ccccc4)cc3)CC2)cc1` showed an Activity of 59.28%. Also, the inhibition in vivo at 15 mg/kg in the data set on Mus musculus [2] is 36.1%; in the data set on Mus musculus [3] it was 32.9%.

As to `O=C(CN1CCN(c2cccc(Cl)c2Cl)CC1)c1ccc(-c2ccccc2)cc1`, the Activity in the data set on Mus musculus [1] is reported as 28.97%. The inhibition in vivo at 15 mg/kg in the data set with Mus musculus [2] stood at 38.3%; with Mus musculus [3], 42.8%.

On to `O=C(CN1CCN(c2ccccc2)CC1)c1ccc(-c2ccccc2)cc1`, for which the Activity in the data set on Mus musculus [1] is 34.53%. The inhibition in vivo at 15 mg/kg with Mus musculus [2] stood at 28%; in the data set on Mus musculus [3] it was 31.9%.

As to `O=C(CN1CCN(c2ccccc2Cl)CC1)c1ccc(-c2ccccc2)cc1`, the Activity in the data set on Mus musculus [1] stood at 42.31%. Further, the inhibition in vivo at 15 mg/kg with Mus musculus [2] amounted to 35.2%; with Mus musculus [3] it was 38.2%.

The compound `COc1ccccc1N1CCN(CC(=O)c2ccc(-c3ccccc3)cc2)CC1` returned an Activity in the data set on Mus musculus [1] of 29.43%. Also, the figures for the inhibition in vivo at 15 mg/kg in the data set with Mus musculus [2] and with Mus musculus [3] were 61.3% and 53.4%, respectively.

In turn, `Cc1cccc(N2CCN(CC(=O)c3ccc(-c4ccccc4)cc3)CC2)c1` had an Activity in the data set on Mus musculus [1] of 33.82%. Also, the inhibition in vivo at 15 mg/kg was determined as 29.6% in the data set with Mus musculus [2] and 33.6% in the data set with Mus musculus [3].

For `O=C(CN1CCN(c2ccc(Cl)cc2)CC1)c1ccc(-c2ccccc2)cc1`, the Activity with Mus musculus [1] stood at 35.17%. Moreover, the inhibition in vivo at 15 mg/kg was 29.2% with Mus musculus [2] and 26.4% in the data set on Mus musculus [3].

Consider `O=C(CN1CCN(c2ccc(Cl)c(Cl)c2)CC1)c1ccc(-c2ccccc2)cc1`, for which the Activity in the data set with Mus musculus [1] came to 30.5%. Moreover, the inhibition in vivo at 15 mg/kg in the data set with Mus musculus [2] was 38.8%; with Mus musculus [3], 25.7%.

`Cc1cccc(N2CCN(CC(=O)c3ccc(-c4ccccc4)cc3)CC2)c1C` had an Activity with Mus musculus [1] of 29.87%. The inhibition in vivo at 15 mg/kg in the data set with Mus musculus [2] came out at 35.4%; in the data set on Mus musculus [3] it was 40.7%.

`O=C(CN1CCN(c2cccc(Cl)c2)CC1)c1ccc(-c2ccccc2)cc1`: the Activity in the data set on Mus musculus [1] came out at 31.84%. Also, the inhibition in vivo at 15 mg/kg in the data set on Mus musculus [2] amounted to 32.6%; in the data set with Mus musculus [3], 29.9%.

Usually inhibition in vivo stands for the share of the control response that was lost under treatment.
